Results published in ChEMBL document CHEMBL2413058, “Structure-cytotoxic activity relationship of sesquilignan, morinol A” (Bioorg Med Chem Lett, 2013).

What was measured:
HL-60 [1] = assay: Cytotoxicity against human HL60 cells after 48 hrs by WST8 assay; type: functional, cell-based; conditions: HL-60, 48 h
HeLa [2] = assay: Cytotoxicity against human HeLa cells after 48 hrs by WST8 assay; type: functional, cell-based
HeLa [3] = assay: Cytotoxicity against human HeLa cells at 100 uM after 48 hrs by WST8 assay; type: functional
HeLa [4] = assay: Ratio of IC50 for human HeLa cells to IC50 for human HL60 cells; type: functional
HL-60 [5] = assay: Cytotoxicity against human HL60 cells at 100 uM after 48 hrs by WST8 assay; type: functional; conditions: HL-60, 48 h

Row | SMILES | IC50 (HL-60 [1]) | IC50 (HeLa [2]) | further results
1 | O[C@@H](c1ccccc1)[C@H]1CO[C@H](c2ccccc2)[C@@H](C/C=C/c2ccccc2F)C1 | 9.53 µM | 9.73 µM | 
2 | COc1ccc(/C=C/C[C@H]2C[C@H]([C@H](O)c3ccc(OC)c(OC)c3)CO[C@@H]2c2ccc(OC)c(OC)c2)cc1OC | 23.5 µM | 34.6 µM | 
3 | COc1ccc(/C=C/C[C@@H]2C[C@@H]([C@@H](O)c3ccc(OC)c(OC)c3)CO[C@H]2c2ccc(OC)c(OC)c2)cc1OC | 26 µM | 30.6 µM | 
4 | COc1ccc(CCC[C@H]2C[C@@H]([C@@H](O)c3ccc(OC)c(OC)c3)CO[C@@H]2c2ccc(OC)c(OC)c2)cc1OC |  | 37.7 µM | 
5 | COc1ccc(/C=C/C[C@H]2C[C@@H]([C@@H](OC(C)=O)c3ccc(OC)c(OC)c3)CO[C@@H]2c2ccc(OC)c(OC)c2)cc1OC |  | > 100 µM | inhibition at 100 µM (HeLa [3]): 29%
6 | COc1ccc(/C=C/C[C@H]2C[C@@H]([C@@H](OC)c3ccc(OC)c(OC)c3)CO[C@@H]2c2ccc(OC)c(OC)c2)cc1OC |  | > 100 µM | inhibition at 100 µM (HeLa [3]): 4.8%
7 | COc1ccc([C@H]2OC[C@H]([C@@H](O)c3ccc(OC)c(OC)c3)C[C@@H]2C/C=C/c2ccc(OC)c(OC)c2)cc1 |  | 46.7 µM | 
8 | COc1cccc([C@H]2OC[C@H]([C@@H](O)c3ccc(OC)c(OC)c3)C[C@@H]2C/C=C/c2ccc(OC)c(OC)c2)c1 |  | 21.8 µM | 
9 | COc1ccc(/C=C/C[C@H]2C[C@@H]([C@@H](O)c3ccc(OC)c(OC)c3)CO[C@@H]2c2ccccc2)cc1OC |  | 17 µM | 
10 | COc1ccc([C@H](O)[C@H]2CO[C@H](c3ccc(OC)c(OC)c3)[C@@H](C/C=C/c3ccc(OC)c(OC)c3)C2)cc1 |  | 46 µM | 
11 | COc1cccc([C@H](O)[C@H]2CO[C@H](c3ccc(OC)c(OC)c3)[C@@H](C/C=C/c3ccc(OC)c(OC)c3)C2)c1 |  | 21.2 µM | 
12 | COc1ccc(/C=C/C[C@H]2C[C@@H]([C@@H](O)c3ccccc3)CO[C@@H]2c2ccc(OC)c(OC)c2)cc1OC |  | 15.5 µM | 
13 | COc1ccc(/C=C/C[C@H]2C[C@@H]([C@@H](O)c3ccc(OC)c(OC)c3)CO[C@@H]2c2ccc(OC)c(OC)c2)cc1 |  | 12.2 µM | 
14 | COc1cccc(/C=C/C[C@H]2C[C@@H]([C@@H](O)c3ccc(OC)c(OC)c3)CO[C@@H]2c2ccc(OC)c(OC)c2)c1 |  | 14 µM | 
15 | COc1ccc([C@H]2OC[C@H]([C@@H](O)c3ccc(OC)c(OC)c3)C[C@@H]2C/C=C/c2ccccc2)cc1OC |  | 14.8 µM | 
16 | C=CC[C@H]1C[C@@H]([C@@H](O)c2ccccc2)CO[C@@H]1c1ccccc1 | 36 µM | 25.4 µM | 
17 | O[C@@H](c1ccccc1)[C@H]1CO[C@H](c2ccccc2)[C@@H](C/C=C/c2ccccc2)C1 | 7.04 µM | 6.06 µM | Ratio IC50 (HeLa [4]): 1.5
18 | O[C@@H](c1ccccc1)[C@H]1CO[C@H](c2ccccc2)[C@@H](C/C=C/c2ccccn2)C1 | 36.4 µM | 33.8 µM | 
19 | O[C@@H](c1ccccc1)[C@H]1CO[C@H](c2ccccc2)[C@@H](C/C=C/c2cccnc2)C1 | > 100 µM | > 100 µM | inhibition at 100 µM (HL-60 [5]): 48%; inhibition at 100 µM (HeLa [3]): 4%
20 | O[C@@H](c1ccccc1)[C@H]1CO[C@H](c2ccccc2)[C@@H](C/C=C/c2ccncc2)C1 | > 100 µM | > 100 µM | inhibition at 100 µM (HL-60 [5]): 13%; inhibition at 100 µM (HeLa [3]): 34%
21 | Oc1ccccc1/C=C/C[C@H]1C[C@@H]([C@@H](O)c2ccccc2)CO[C@@H]1c1ccccc1 | 10.8 µM | 21.8 µM | 
22 | Oc1cccc(/C=C/C[C@H]2C[C@@H]([C@@H](O)c3ccccc3)CO[C@@H]2c2ccccc2)c1 | 12.8 µM | 18.6 µM | 
23 | Oc1ccc(/C=C/C[C@H]2C[C@@H]([C@@H](O)c3ccccc3)CO[C@@H]2c2ccccc2)cc1 | 7.38 µM | 14.4 µM | 
24 | COc1ccccc1/C=C/C[C@H]1C[C@@H]([C@@H](O)c2ccccc2)CO[C@@H]1c1ccccc1 | 10.1 µM | 14.7 µM | 
25 | COc1cccc(/C=C/C[C@H]2C[C@@H]([C@@H](O)c3ccccc3)CO[C@@H]2c2ccccc2)c1 | 9.62 µM | 10.9 µM | 

Row | SMILES | IC50 (HL-60 [1]) | IC50 (HeLa [2]) | further results
26 | COc1ccc(/C=C/C[C@H]2C[C@@H]([C@@H](O)c3ccccc3)CO[C@@H]2c2ccccc2)cc1 | 9.01 µM | 8.3 µM | 
27 | O[C@@H](c1ccccc1)[C@H]1CO[C@H](c2ccccc2)[C@@H](C/C=C/c2cccc(F)c2)C1 | 9.17 µM | 8.38 µM | 
28 | O[C@@H](c1ccccc1)[C@H]1CO[C@H](c2ccccc2)[C@@H](C/C=C/c2ccc(F)cc2)C1 | 8.11 µM | 8.34 µM | 
29 | O=[N+]([O-])c1ccccc1/C=C/C[C@H]1C[C@@H]([C@@H](O)c2ccccc2)CO[C@@H]1c1ccccc1 | 7.25 µM | 11.8 µM | 
30 | O=[N+]([O-])c1cccc(/C=C/C[C@H]2C[C@@H]([C@@H](O)c3ccccc3)CO[C@@H]2c2ccccc2)c1 | 6.35 µM | 7.85 µM | 
31 | O=[N+]([O-])c1ccc(/C=C/C[C@H]2C[C@@H]([C@@H](O)c3ccccc3)CO[C@@H]2c2ccccc2)cc1 | 4.88 µM | 12.4 µM | 
32 | Cc1ccc(/C=C/C[C@H]2C[C@@H]([C@@H](O)c3ccccc3)CO[C@@H]2c2ccccc2)cc1C | 9.88 µM | 10 µM | 
33 | O[C@@H](c1ccccc1)[C@H]1CO[C@H](c2ccccc2)[C@@H](C/C=C/C2CCCC2)C1 | 9.06 µM | 9.33 µM | 
34 | O[C@@H](c1ccccc1)[C@H]1CO[C@H](c2ccccc2)[C@@H](C/C=C/C2CCCCC2)C1 | 6.26 µM | 6.44 µM | 
35 | CCCCCC/C=C/C[C@H]1C[C@@H]([C@@H](O)c2ccccc2)CO[C@@H]1c1ccccc1 | 4.99 µM | 7.4 µM | 
36 | COc1ccc(CCC[C@@H]2C[C@@H]([C@@H](O)c3ccc(OC)c(OC)c3)CO[C@H]2c2ccc(OC)c(OC)c2)cc1OC |  | 35.7 µM | 
37 | COc1ccc(/C=C/C[C@@H]2C[C@@H]([C@@H](OC(C)=O)c3ccc(OC)c(OC)c3)CO[C@H]2c2ccc(OC)c(OC)c2)cc1OC |  | > 100 µM | inhibition at 100 µM (HeLa [3]): 48%
38 | COc1ccc(/C=C/C[C@@H]2C[C@@H]([C@@H](OC)c3ccc(OC)c(OC)c3)CO[C@H]2c2ccc(OC)c(OC)c2)cc1OC |  | > 100 µM | inhibition at 100 µM (HeLa [3]): 34%
39 | COc1ccc([C@@H]2OC[C@H]([C@@H](O)c3ccc(OC)c(OC)c3)C[C@H]2C/C=C/c2ccc(OC)c(OC)c2)cc1 |  | 29.2 µM | 
40 | COc1cccc([C@@H]2OC[C@H]([C@@H](O)c3ccc(OC)c(OC)c3)C[C@H]2C/C=C/c2ccc(OC)c(OC)c2)c1 |  | 30.1 µM | 
41 | COc1ccc(/C=C/C[C@@H]2C[C@@H]([C@@H](O)c3ccc(OC)c(OC)c3)CO[C@H]2c2ccccc2)cc1OC |  | 16.1 µM | 
42 | COc1ccc([C@H](O)[C@H]2CO[C@@H](c3ccc(OC)c(OC)c3)[C@H](C/C=C/c3ccc(OC)c(OC)c3)C2)cc1 |  | 32.2 µM | 
43 | COc1cccc([C@H](O)[C@H]2CO[C@@H](c3ccc(OC)c(OC)c3)[C@H](C/C=C/c3ccc(OC)c(OC)c3)C2)c1 |  | 18.6 µM | 
44 | COc1ccc(/C=C/C[C@@H]2C[C@@H]([C@@H](O)c3ccccc3)CO[C@H]2c2ccc(OC)c(OC)c2)cc1OC |  | 16.8 µM | 
45 | COc1ccc(/C=C/C[C@@H]2C[C@@H]([C@@H](O)c3ccc(OC)c(OC)c3)CO[C@H]2c2ccc(OC)c(OC)c2)cc1 |  | 17.1 µM | 
46 | COc1cccc(/C=C/C[C@@H]2C[C@@H]([C@@H](O)c3ccc(OC)c(OC)c3)CO[C@H]2c2ccc(OC)c(OC)c2)c1 |  | 16.4 µM | 
47 | COc1ccc([C@H](O)[C@H]2CO[C@@H](c3ccc(OC)c(OC)c3)[C@H](C/C=C/c3ccccc3)C2)cc1OC |  | 16.1 µM | 
48 | COc1ccc(/C=C/C[C@H]2C[C@@H]([C@@H](O)c3ccc(OC)c(OC)c3)CO[C@@H]2c2ccc(OC)c(OC)c2)cc1OC | 34.7 µM | 23.8 µM | 
49 | COc1ccc(/C=C/C[C@@H]2C[C@H]([C@H](O)c3ccc(OC)c(OC)c3)CO[C@H]2c2ccc(OC)c(OC)c2)cc1OC |  | 28.7 µM | 
